Test results taken from PubChem BioAssay (NCI).
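Method: 48-hour compound exposure of cells in 96-well plates, five concentrations, linear interpolation of endpoints. TGI is the concentration that stops growth completely.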

tested on: LOX IMVI melanoma; test: NCI-60 cell line screen, 48 h

With `O=C1c2cccc3cc([N+](=O)[O-])cc(c23)C(=O)N1Nc1ccc([N+](=O)[O-])cc1[N+](=O)[O-]` as the compound, how does the TGI read?
The TGI was 19.4 µM.

How did the TGI turn out when `O=C1SC(SCc2ccccc2)=NC12CC2c1ccccc1` (configuration not stated) was run?
The TGI was 38 µM.

How did the TGI turn out when `N=c1oc2ccccc2cc1C(=O)NC12CC3CC(CC(C3)C1)C2` was run?
The TGI was over 59.8 µM.

For `O=C1NC2(CCN(CCc3ccccc3)CC2)Oc2ccccc21`, which TGI is on record?
The TGI was over 100 µM.

With `Cc1cc(OC(=O)Nc2cccc3ccccc23)c(C(C)C)cc1C(=S)Nc1ccccc1` as the compound, how does the TGI read?
The TGI was 28.7 µM.

Which TGI does the source give for `COc1cc2c(/C=C3/C(=O)Nc4cccc(Cl)c43)c(Cl)[nH]c2cc1C` here?
Its TGI is 3.68 µM.

For `Cc1ccc(S(=O)(=O)N2C3C=CC(C3)[C@@H]2C(Cl)(Cl)Cl)cc1` (some centres not stated), which TGI is on record?
The TGI was 33.2 µM.

For `COCOC1/C=C/CCCCC(=O)C(C)C#CC1` (configuration not stated), which TGI is on record?
Its TGI is 7.36 µM.

tested on: RPMI-8226 leukemia; test: NCI-60 cell line screen, 48 h

With `O=c1c(F)cn(Cc2c(Cl)cccc2Cl)c(=O)n1Cc1c(Cl)cccc1Cl` as the compound, how does the TGI read?
Its TGI is over 31.6 µM.

For `COc1ccc(C2=CC(C(C)=C(C(N)=O)C(N)=O)C=C(c3ccc(Br)cc3)C2)c(OC)c1` (configuration not stated), which TGI is on record?
Its TGI is over 100 µM.

With `CC(C)(CN1CCCCC1)C(/C=C/c1ccc(Cl)cc1)=N\NC(=O)N/N=C(/C=C/c1ccc(Cl)cc1)C(C)(C)CN1CCCCC1` as the compound, how does the TGI read?
Its TGI is 54.8 µM.

How did the TGI turn out when `O=C1c2cccc3cc([N+](=O)[O-])cc(c23)C(=O)N1Nc1ccc([N+](=O)[O-])cc1[N+](=O)[O-]` was run?
Its TGI is over 31.6 µM.

For `O=C1SC(SCc2ccccc2)=NC12CC2c1ccccc1` (configuration not stated), which TGI is on record?
Its TGI is 48.3 µM.

With `N=c1oc2ccccc2cc1C(=O)NC12CC3CC(CC(C3)C1)C2` as the compound, how does the TGI read?
The TGI was 31.1 µM.

With `O=C1NC2(CCN(CCc3ccccc3)CC2)Oc2ccccc21` as the compound, how does the TGI read?
The TGI was over 100 µM.

For `Cc1cc(OC(=O)Nc2cccc3ccccc23)c(C(C)C)cc1C(=S)Nc1ccccc1`, which TGI is on record?
Its TGI is 75.8 µM.

For `COc1cc2c(/C=C3/C(=O)Nc4cccc(Cl)c43)c(Cl)[nH]c2cc1C`, which TGI is on record?
Its TGI is 4.69 µM.

For `Cc1ccc(S(=O)(=O)N2C3C=CC(C3)[C@@H]2C(Cl)(Cl)Cl)cc1` (some centres not stated), which TGI is on record?
Its TGI is 32.1 µM.

With `COCOC1/C=C/CCCCC(=O)C(C)C#CC1` (configuration not stated) as the compound, how does the TGI read?
The TGI was 5.96 µM.

tested on: MDA-MB-435; test: NCI-60 cell line screen, 48 h

Which TGI does the source give for `O=c1c(F)cn(Cc2c(Cl)cccc2Cl)c(=O)n1Cc1c(Cl)cccc1Cl` here?
Its TGI is over 31.6 µM.

Which TGI does the source give for `COc1ccc(C2=CC(C(C)=C(C(N)=O)C(N)=O)C=C(c3ccc(Br)cc3)C2)c(OC)c1` (configuration not stated) here?
The TGI was over 100 µM.

Which TGI does the source give for `CC(C)(CN1CCCCC1)C(/C=C/c1ccc(Cl)cc1)=N\NC(=O)N/N=C(/C=C/c1ccc(Cl)cc1)C(C)(C)CN1CCCCC1` here?
Its TGI is 13.5 µM.

For `O=C1c2cccc3cc([N+](=O)[O-])cc(c23)C(=O)N1Nc1ccc([N+](=O)[O-])cc1[N+](=O)[O-]`, which TGI is on record?
Its TGI is over 46.4 µM.

`O=C1SC(SCc2ccccc2)=NC12CC2c1ccccc1` (configuration not stated) was tested. Which TGI did it give?
The TGI was 59.3 µM.

With `N=c1oc2ccccc2cc1C(=O)NC12CC3CC(CC(C3)C1)C2` as the compound, how does the TGI read?
Its TGI is over 83.6 µM.

How did the TGI turn out when `O=C1NC2(CCN(CCc3ccccc3)CC2)Oc2ccccc21` was run?
Its TGI is over 100 µM.

For `Cc1cc(OC(=O)Nc2cccc3ccccc23)c(C(C)C)cc1C(=S)Nc1ccccc1`, which TGI is on record?
Its TGI is 33.5 µM.

Which TGI does the source give for `COc1cc2c(/C=C3/C(=O)Nc4cccc(Cl)c43)c(Cl)[nH]c2cc1C` here?
Its TGI is 3.44 µM.

Which TGI does the source give for `Cc1ccc(S(=O)(=O)N2C3C=CC(C3)[C@@H]2C(Cl)(Cl)Cl)cc1` (some centres not stated) here?
The TGI was over 88.4 µM.

`COCOC1/C=C/CCCCC(=O)C(C)C#CC1` (configuration not stated) was tested. Which TGI did it give?
The TGI was 18.3 µM.

tested on: SK-MEL-5 melanoma; test: NCI-60 cell line screen, 48 h

Which TGI does the source give for `O=c1c(F)cn(Cc2c(Cl)cccc2Cl)c(=O)n1Cc1c(Cl)cccc1Cl` here?
The TGI was over 31.6 µM.

How did the TGI turn out when `COc1ccc(C2=CC(C(C)=C(C(N)=O)C(N)=O)C=C(c3ccc(Br)cc3)C2)c(OC)c1` (configuration not stated) was run?
Its TGI is over 100 µM.

How did the TGI turn out when `CC(C)(CN1CCCCC1)C(/C=C/c1ccc(Cl)cc1)=N\NC(=O)N/N=C(/C=C/c1ccc(Cl)cc1)C(C)(C)CN1CCCCC1` was run?
Its TGI is 11.2 µM.

With `O=C1c2cccc3cc([N+](=O)[O-])cc(c23)C(=O)N1Nc1ccc([N+](=O)[O-])cc1[N+](=O)[O-]` as the compound, how does the TGI read?
The TGI was 21.1 µM.

`O=C1SC(SCc2ccccc2)=NC12CC2c1ccccc1` (configuration not stated) was tested. Which TGI did it give?
Its TGI is 34.1 µM.

With `N=c1oc2ccccc2cc1C(=O)NC12CC3CC(CC(C3)C1)C2` as the compound, how does the TGI read?
Its TGI is 69.9 µM.

`O=C1NC2(CCN(CCc3ccccc3)CC2)Oc2ccccc21` was tested. Which TGI did it give?
Its TGI is 27.8 µM.

For `Cc1cc(OC(=O)Nc2cccc3ccccc23)c(C(C)C)cc1C(=S)Nc1ccccc1`, which TGI is on record?
The TGI was 27.9 µM.

For `COc1cc2c(/C=C3/C(=O)Nc4cccc(Cl)c43)c(Cl)[nH]c2cc1C`, which TGI is on record?
The TGI was 14.3 µM.

With `Cc1ccc(S(=O)(=O)N2C3C=CC(C3)[C@@H]2C(Cl)(Cl)Cl)cc1` (some centres not stated) as the compound, how does the TGI read?
Its TGI is 38.3 µM.

With `COCOC1/C=C/CCCCC(=O)C(C)C#CC1` (configuration not stated) as the compound, how does the TGI read?
The TGI was 15.3 µM.

tested on: HS 578T breast; test: NCI-60 cell line screen, 48 h

`O=c1c(F)cn(Cc2c(Cl)cccc2Cl)c(=O)n1Cc1c(Cl)cccc1Cl` was tested. Which TGI did it give?
Its TGI is over 31.6 µM.

How did the TGI turn out when `COc1ccc(C2=CC(C(C)=C(C(N)=O)C(N)=O)C=C(c3ccc(Br)cc3)C2)c(OC)c1` (configuration not stated) was run?
Its TGI is over 100 µM.

Which TGI does the source give for `CC(C)(CN1CCCCC1)C(/C=C/c1ccc(Cl)cc1)=N\NC(=O)N/N=C(/C=C/c1ccc(Cl)cc1)C(C)(C)CN1CCCCC1` here?
Its TGI is 19.9 µM.

With `O=C1c2cccc3cc([N+](=O)[O-])cc(c23)C(=O)N1Nc1ccc([N+](=O)[O-])cc1[N+](=O)[O-]` as the compound, how does the TGI read?
Its TGI is over 31.6 µM.

`O=C1SC(SCc2ccccc2)=NC12CC2c1ccccc1` (configuration not stated) was tested. Which TGI did it give?
Its TGI is 68.4 µM.

Which TGI does the source give for `N=c1oc2ccccc2cc1C(=O)NC12CC3CC(CC(C3)C1)C2` here?
Its TGI is over 100 µM.
